{"source": "paper PMC4476799", "about": "“Englerin A Agonizes the TRPC4/C5 Cation Channels to Inhibit Tumor Cell Line Proliferation” (PLoS ONE, 2015)", "key": {"A-673 cells": {"system": "A-673 cells", "type": "cell-based", "description": "Cell viability was measured 48 hours later using Cell Titer-Glo."}, "TRPC4": {"target": "T1, TRPC4 (Homo sapiens, UniProt Q9UBN4)", "T1 construct": "host or cells: Flp-In T-REx-293 (called HEK293T with Dox-inducible TRPC4)", "T1 sequence (Q9UBN4 1-977)": "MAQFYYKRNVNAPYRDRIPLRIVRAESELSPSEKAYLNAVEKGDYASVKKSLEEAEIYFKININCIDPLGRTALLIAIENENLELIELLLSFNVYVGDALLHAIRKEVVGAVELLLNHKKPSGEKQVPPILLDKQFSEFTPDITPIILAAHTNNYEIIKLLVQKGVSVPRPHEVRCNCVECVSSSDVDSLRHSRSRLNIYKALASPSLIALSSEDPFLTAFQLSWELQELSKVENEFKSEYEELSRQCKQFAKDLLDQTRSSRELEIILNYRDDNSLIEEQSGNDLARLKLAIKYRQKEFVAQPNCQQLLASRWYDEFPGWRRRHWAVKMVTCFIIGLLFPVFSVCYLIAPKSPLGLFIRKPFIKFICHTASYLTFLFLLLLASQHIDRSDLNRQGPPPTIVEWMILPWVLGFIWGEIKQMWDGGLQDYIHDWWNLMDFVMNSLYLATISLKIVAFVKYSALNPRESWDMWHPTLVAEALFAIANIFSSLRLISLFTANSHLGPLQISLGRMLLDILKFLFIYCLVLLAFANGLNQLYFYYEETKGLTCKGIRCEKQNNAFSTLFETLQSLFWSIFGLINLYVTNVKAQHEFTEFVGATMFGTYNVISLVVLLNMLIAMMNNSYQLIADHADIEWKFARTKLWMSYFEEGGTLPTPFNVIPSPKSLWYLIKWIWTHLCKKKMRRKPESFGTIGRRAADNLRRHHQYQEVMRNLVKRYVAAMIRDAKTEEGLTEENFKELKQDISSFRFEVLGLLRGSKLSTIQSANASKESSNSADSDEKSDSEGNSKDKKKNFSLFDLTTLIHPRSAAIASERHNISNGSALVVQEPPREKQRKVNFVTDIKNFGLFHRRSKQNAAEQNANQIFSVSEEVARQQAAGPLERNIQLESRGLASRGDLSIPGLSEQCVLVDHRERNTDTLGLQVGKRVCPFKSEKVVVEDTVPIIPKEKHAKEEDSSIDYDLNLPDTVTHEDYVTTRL", "test": "Electrophysiology (QPatch-HT automated patch clamp, voltage ramp)", "type": "cell-based", "settings": "10 μM ML204 + 5 μM englerin A; Dox-induced TRPC4", "description": "TRPC4 currents were recorded from HEK293T cells with Dox-inducible TRPC4 on the QPatch-HT automated patch clamp system at room temperature (21–24°C) (Biolin Scientific, Stockholm, Sweden). The internal solution contained (in mM): 150 Cs-aspartate, 2 MgCl2, 0.36 CaCl2, 1 EGTA, 4 MgATP, 0.3 NaGTP and 10 HEPES, pH = 7.20 with CsOH (calculated free [Ca^2+] = 100 nM using WebMaxChelator http://www.stanford.edu/~cpatton/maxc.html, assuming an ionic strength of 0.16). The standard external solution contained (in mM): 150 NaCl, 4 KCl, 2 CaCl2, 1 MgCl2, 10 HEPES and 10 D-glucose (pH = 7.40) with NaOH. Currents were elicited by a voltage ramp protocol consisting of a 50 ms step to −100 mV, followed by a 200 ms ramp to +100 mV and 10 ms at +100 mV. Voltage ramps were applied every 10 s from a holding potential of 0 mV. Results were expressed as means ± S.E.M."}}}
{"molecule": "Cc1cc(N2CCCCC2)nc2ccccc12", "note": "[ML204]", "values": [{"measurement": "doses of ML204 alone at which A-673 cell growth is impaired", "setting": "A-673 cells", "value": "higher than 50 μM"}, {"measurement": "rescue of growth inhibition by englerin A", "setting": "A-673 cells; 50 μM ML204 with 50 nM englerin A, A-673 cells", "value": "partially rescued"}, {"measurement": "effect on englerin A induced inward and outward currents", "setting": "TRPC4", "value": "inhibited"}]}
